The source of these data is US11986471B2, “Compounds and methods of use” (Tango Therapeutics, Inc., priority 2018, dated 2024).

The structures appear in SMILES notation. Where only a bound is given, the exact number is not on record here.

The subject of one assay is HAP1 MTAP-intact. The assay is described as follows: SDMA in-cell western assay, HAP1 MTAP-intact cell line. To be noted: Homo sapiens. It counts as cell-based. The procedure, abridged: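 Symmetric dimethylarginine (SDMA) levels were measured by in-cell western in an isogenic HAP1 pair, one expressing endogenous MTAP and one MTAP-null, and IC50 values were derived for each line. Compounds whose IC50 ratio between the lines is 3-fold or more are classed as MTAP-selective.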

In another assay the test system is HAP1 MTAP-deleted. The assay can be described thus: SDMA in-cell western assay, HAP1 MTAP-deleted cell line. The format is cell-based. To be noted: for IC50: Homo sapiens, HAP1 MTAP-deleted cell line; for MTAP Intact/Deleted Ratio: IC50 ratio HAP1 MTAP-intact / HAP1 MTAP-deleted. The procedure, abridged:
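Symmetric dimethylarginine (SDMA) levels were measured by in-cell western in MTAP-null HAP1 cells, one half of an MTAP-isogenic pair whose partner line expresses endogenous MTAP. Compound potency is reported as IC50.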

The target in assay [1] is T1, PRMT5 (Homo sapiens, UniProt O14744).
T1 construct: purchased Viva (custom protein)
The assay can be described thus: PRMT5 IC50 assay in the presence of SAM as cofactor. The format is biochemical. The procedure, abridged: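 Enzyme: human PRMT5. Conditions: plus SAM, plus MTA, or cofactor-free. Output: IC50 (μM); Ki via IC50/1.5 (SAM) or IC50/13.5 (MTA).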

Assay [2] addresses T1, PRMT5. The assay is described as follows: PRMT5 IC50 assay with no cofactor. It counts as biochemical. The procedure, abridged:
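Results given as IC50 (μM), from which Ki follows by dividing by 1.5 in the SAM condition or by 13.5 in the MTA condition. The ratio of SAM Ki to MTA Ki indicates MTA-cooperative preference.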

Assay [3] concerns the target T1, PRMT5. The assay can be described thus: PRMT5 IC50 assay in the presence of MTA as cofactor. The format is biochemical. To be noted: for IC50: PRMT5, MTA as cofactor. The procedure, abridged: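 Ki conversion: SAM arm, Ki=IC50/1.5; MTA arm, Ki=IC50/13.5. No-cofactor arm reported as IC50 only. Selectivity expressed as Ki(SAM)/Ki(MTA).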
[4] abbreviates: ratio between Ki in the presence of SAM and Ki in the presence of MTA.
Setting [5] is: ratio between the Ki in the presence of SAM and the Ki in the presence of MTA.

T1 sequence (O14744 whole entry): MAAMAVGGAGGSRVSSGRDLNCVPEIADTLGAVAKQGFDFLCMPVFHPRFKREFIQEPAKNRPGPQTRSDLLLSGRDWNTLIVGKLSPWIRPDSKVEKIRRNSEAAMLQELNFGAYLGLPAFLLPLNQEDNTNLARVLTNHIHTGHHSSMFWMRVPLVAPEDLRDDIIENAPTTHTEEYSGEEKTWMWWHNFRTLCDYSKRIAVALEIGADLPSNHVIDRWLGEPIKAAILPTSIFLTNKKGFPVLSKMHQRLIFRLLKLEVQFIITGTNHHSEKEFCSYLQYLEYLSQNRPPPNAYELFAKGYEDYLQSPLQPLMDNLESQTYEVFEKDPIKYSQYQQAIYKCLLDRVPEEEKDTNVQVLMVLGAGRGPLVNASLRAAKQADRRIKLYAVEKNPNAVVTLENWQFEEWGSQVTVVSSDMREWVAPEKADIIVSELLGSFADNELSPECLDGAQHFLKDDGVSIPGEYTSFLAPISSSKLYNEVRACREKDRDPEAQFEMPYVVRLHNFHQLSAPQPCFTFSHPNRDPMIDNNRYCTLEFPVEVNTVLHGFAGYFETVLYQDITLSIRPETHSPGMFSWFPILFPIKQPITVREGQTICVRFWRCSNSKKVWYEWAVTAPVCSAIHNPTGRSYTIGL
T1 sequence (Q9BQA1 whole entry partner): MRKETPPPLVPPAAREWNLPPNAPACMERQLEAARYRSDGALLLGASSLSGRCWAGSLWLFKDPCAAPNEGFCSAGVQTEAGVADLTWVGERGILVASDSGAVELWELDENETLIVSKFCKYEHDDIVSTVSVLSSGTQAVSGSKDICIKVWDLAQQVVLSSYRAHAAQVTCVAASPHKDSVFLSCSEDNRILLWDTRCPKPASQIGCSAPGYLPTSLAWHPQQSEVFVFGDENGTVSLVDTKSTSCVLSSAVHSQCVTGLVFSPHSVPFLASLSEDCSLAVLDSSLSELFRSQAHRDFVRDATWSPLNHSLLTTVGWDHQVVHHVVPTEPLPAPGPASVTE

For the compound `Cc1c(OCc2cnco2)ccc2c1CCN(C[C@@H](O)CNC(=O)c1ccnc(NC3CCN(C(=O)C(C)(C)C)CC3)c1)C2` [Compound 402, (S)—N-(2-hydroxy-3-(5-methyl-6-(oxazol-5-ylmethoxy)-3N-dihydroisoquinolin-2(1H)-yl)propyl)-2-((1-pivaloylpiperidin-4-yl)amino)isonicotinamide], the IC50 (as a rule, the midpoint of a concentration-inhibition curve) is not below 10 µM with HAP1 MTAP-intact; 1000 to 10000 nM with HAP1 MTAP-deleted; 50 to 500 nM at PRMT5 [1]; 0.5 to 5 µM on PRMT5 [2] (read-out: No Co-factor IC50); 50 to 500 nM on PRMT5 [3]. Moreover, the “MTAP Intact/Deleted Ratio” value in the assay on HAP1 MTAP-deleted is “B* (an IC50 ratio greater than or equal to 3 fold but lower than 10 fold between the IC50 in the HAP1 MTAP-intact cell line and the HAP1 MTAP-deleted cell line)”. The “SAM/MTA Ratio” value at PRMT5 [3] (setting [4]) is “A (a Ki ratio greater than or equal to 10 fold between the Ki in the presence of SAM and the Ki in the presence of MTA)”.

Consider `CC(=O)N1CC[C@H](Nc2cc(C(=O)NC[C@H](O)CN3CCc4cc(OCc5ocnc5C)ccc4C3)ccn2)C[C@H]1C` [Compound 644, 2-(((2R,4S)-1-acetyl-2-methylpiperidin-4-yl)amino)-N—((S)-2-hydroxy-3-(6-((4-methyloxazol-5-yl)methoxy)-3,4-dihydroisoquinolin-2(1H)-yl)propyl)isonicotinamide], for which the IC50 in the assay on HAP1 MTAP-intact was 1 to 10 µM; in the assay with HAP1 MTAP-deleted it was less than 1000 nM; on PRMT5 [1], 50 to 500 nM; on PRMT5 [2] (read-out: No Co-factor IC50) it was 0.5 to 5 µM; on PRMT5 [3] it was less than 50 nM. Besides, the “MTAP Intact/Deleted Ratio” value in the assay with HAP1 MTAP-deleted was “A* (an IC50 ratio greater than or equal to 10 fold between the IC50 in the HAP1 MTAP-intact cell line and the HAP1 MTAP-deleted cell line)”. For the same compound, the “SAM/MTA Ratio” value on PRMT5 [3] (setting [4]) is “A (a Ki ratio greater than or equal to 10 fold between the Ki in the presence of SAM and the Ki in the presence of MTA)”.

Consider `CC(=O)N1CCC(Nc2cc(C(=O)NC[C@H](O)CN3CCc4cc(OCc5conc5C)ccc4C3)ncn2)CC1` [Compound 233, (S)-6-((1-acetylpiperidin-4-yl)amino)-N-(2-hydroxy-3-(6-((3-methylisoxazol-4-yl)methoxy)-3,4-dihydroisoquinolin-2(1H)-yl)propyl)pyrimidine-4-carboxamide], for which the concentration for half-maximal inhibition (IC50) in the assay on HAP1 MTAP-intact was not below 10 µM; with HAP1 MTAP-deleted, 1000 to 10000 nM; on PRMT5 [1] it was 50 to 500 nM; on PRMT5 [2] (read-out: No Co-factor IC50), not below 5 µM; at PRMT5 [3], 50 to 500 nM. Also, in the assay with HAP1 MTAP-deleted, the “MTAP Intact/Deleted Ratio” value is “C* (an IC50 ratio of less than 3 fold between the IC50 in the HAP1 MTAP-intact cell line and the HAP1 MTAP-deleted cell line)”. Moreover, the “SAM/MTA Ratio” value on PRMT5 [3] (setting [4]) is “A (a Ki ratio greater than or equal to 10 fold between the Ki in the presence of SAM and the Ki in the presence of MTA)”.

Regarding `Cc1ncoc1COc1ccc2c(c1C)CCN(C[C@@H](O)CNC(=O)c1cc(NC3CCCC3)ncn1)C2` [Compound 367, 6-(cyclopentylamino)-N-[(2S)-2-hydroxy-3-{5-methyl-6-[(4-methyl-1,3-oxazol-5-yl)methoxy]-1,2,3,4-tetrahydroisoquinolin-2-yl}propyl]pyrimidine-4-carboxamide], the concentration for half-maximal inhibition (IC50) was not below 10 µM with HAP1 MTAP-intact; not below 10000 nM with HAP1 MTAP-deleted; 500 to 5000 nM at PRMT5 [1]; not below 5 µM at PRMT5 [2] (read-out: No Co-factor IC50); 50 to 500 nM at PRMT5 [3]. Moreover, the “MTAP Intact/Deleted Ratio” value with HAP1 MTAP-deleted is “C* (an IC50 ratio of less than 3 fold between the IC50 in the HAP1 MTAP-intact cell line and the HAP1 MTAP-deleted cell line)”. Further, the “SAM/MTA Ratio” value on PRMT5 [3] (setting [4]) is “A (a Ki ratio greater than or equal to 10 fold between the Ki in the presence of SAM and the Ki in the presence of MTA)”.

With `CC(=O)N1CCC(Nc2cncc(C(=O)NC[C@H](O)CN3CCc4cc(OCc5cnco5)ccc4C3)c2)CC1` [Compound 549, (S)-5-((1-acetylpiperidin-4-yl)amino)-N-(2-hydroxy-3-(6-(oxazol-5-ylmethoxy)-3,4-dihydroisoquinolin-2(1H)-yl)propyl)nicotinamide], the IC50 was not below 10 µM with HAP1 MTAP-intact; not below 10000 nM in the assay with HAP1 MTAP-deleted; 50 to 500 nM on PRMT5 [1]; 0.5 to 5 µM at PRMT5 [2]; 50 to 500 nM on PRMT5 [3]. Moreover, the “MTAP Intact/Deleted Ratio” value with HAP1 MTAP-deleted was “C* (an IC50 ratio of less than 3 fold between the IC50 in the HAP1 MTAP-intact cell line and the HAP1 MTAP-deleted cell line)”. The “SAM/MTA Ratio” value on PRMT5 [3] (setting [5]) was “A (a Ki ratio greater than or equal to 10 fold between the Ki in the presence of SAM and the Ki in the presence of MTA)”.

On to `COCCN(C)c1cc(C(=O)NC[C@H](O)CN2CCc3c(ccc(OCc4cnco4)c3Cl)C2)cc(NC2CCC2)n1` [Compound 345], for which the half-maximal inhibitory concentration (IC50) in the assay with HAP1 MTAP-intact is not below 10 µM; in the assay with HAP1 MTAP-deleted it was 1000 to 10000 nM; on PRMT5 [1], 50 to 500 nM; at PRMT5 [2] (read-out: No Co-factor IC50), not below 5 µM; at PRMT5 [3], 50 to 500 nM. Moreover, in the assay on HAP1 MTAP-deleted, the “MTAP Intact/Deleted Ratio” value was “B* (an IC50 ratio greater than or equal to 3 fold but lower than 10 fold between the IC50 in the HAP1 MTAP-intact cell line and the HAP1 MTAP-deleted cell line)”. In addition, the “SAM/MTA Ratio” value on PRMT5 [3] (setting [4]) is “A (a Ki ratio greater than or equal to 10 fold between the Ki in the presence of SAM and the Ki in the presence of MTA)”.

`Cc1ncoc1COc1ccc2c(c1C)CCN(C[C@@H](O)CNC(=O)c1cc(NC3CCC3)nc(N3CCN(C(=O)C(C)C)CC3)c1)C2` [Compound 459, 2-(cyclobutylamino)-N-[(2S)-2-hydroxy-3-{5-methyl-6-[(4-methyl-1,3-oxazol-5-yl)methoxy]-1,2,3,4-tetrahydroisoquinolin-2-yl}propyl]-6-[4-(2-methylpropanoyl)piperazin-1-yl]pyridine-4-carboxamide]: the IC50 was 1 to 10 µM in the assay on HAP1 MTAP-intact; less than 1000 nM in the assay with HAP1 MTAP-deleted; 50 to 500 nM on PRMT5 [1]; 0.5 to 5 µM on PRMT5 [2]; 50 to 500 nM on PRMT5 [3]. The “MTAP Intact/Deleted Ratio” value in the assay with HAP1 MTAP-deleted was “A* (an IC50 ratio greater than or equal to 10 fold between the IC50 in the HAP1 MTAP-intact cell line and the HAP1 MTAP-deleted cell line)”. Besides, the “SAM/MTA Ratio” value on PRMT5 [3] (setting [5]) is “A (a Ki ratio greater than or equal to 10 fold between the Ki in the presence of SAM and the Ki in the presence of MTA)”.

`Cc1ncoc1COc1ccc2c(c1C)CCN(C[C@@H](O)CNC(=O)c1cc(NC3COC3)nc(N3CCOCC3)n1)C2` [Compound 423, N-[(2S)-2-hydroxy-3-{5-methyl-6-[(4-methyl-1,3-oxazol-5-yl)methoxy]-1,2,3,4-tetrahydroisoquinolin-2-yl}propyl]-2-(morpholin-4-yl)-6-[(oxetan-3-yl)amino]pyrimidine-4-carboxamide]: the IC50 was not below 10 µM in the assay with HAP1 MTAP-intact; 1000 to 10000 nM with HAP1 MTAP-deleted; 500 to 5000 nM at PRMT5 [1]; not below 5 µM at PRMT5 [2] (read-out: No Co-factor IC50); 50 to 500 nM at PRMT5 [3]. The “MTAP Intact/Deleted Ratio” value with HAP1 MTAP-deleted is “C* (an IC50 ratio of less than 3 fold between the IC50 in the HAP1 MTAP-intact cell line and the HAP1 MTAP-deleted cell line)”. The “SAM/MTA Ratio” value at PRMT5 [3] (setting [4]) is “A (a Ki ratio greater than or equal to 10 fold between the Ki in the presence of SAM and the Ki in the presence of MTA)”.

On to `CC(=O)N1CCC(Nc2cncc(C(=O)NC[C@H](O)CN3CCc4c(ccc(OCc5cnco5)c4C)C3)c2)CC1` [Compound 606, 5-[(1-acetylpiperidin-4-yl)amino]-N-[(2S)-2-hydroxy-3-{5-methyl-6-[(1,3-oxazol-5-yl)methoxy]-1,2,3,4-tetrahydroisoquinolin-2-yl}propyl]pyridine-3-carboxamide], for which the IC50 is not below 10 µM with HAP1 MTAP-intact; 1000 to 10000 nM in the assay with HAP1 MTAP-deleted; 50 to 500 nM at PRMT5 [1]; 0.5 to 5 µM at PRMT5 [2]; 50 to 500 nM at PRMT5 [3]. Besides, in the assay with HAP1 MTAP-deleted, the “MTAP Intact/Deleted Ratio” value is “C* (an IC50 ratio of less than 3 fold between the IC50 in the HAP1 MTAP-intact cell line and the HAP1 MTAP-deleted cell line)”. For the same compound, the “SAM/MTA Ratio” value at PRMT5 [3] (setting [5]) was “A (a Ki ratio greater than or equal to 10 fold between the Ki in the presence of SAM and the Ki in the presence of MTA)”.

For `CCN(C)c1cc(C(=O)NC[C@H](O)CN2CCc3cc(OCc4ocnc4C)ccc3C2)cc(NC2CCC2)n1` [Compound 489, 2-(cyclobutylamino)-6-[ethyl(methyl)amino]-N-[(2S)-2-hydroxy-3-{6-[(4-methyl-1,3-oxazol-5-yl)methoxy]-1,2,3,4-tetrahydroisoquinolin-2-yl}propyl]pyridine-4-carboxamide], the 50% inhibitory concentration (IC50) was not below 10 µM with HAP1 MTAP-intact; 1000 to 10000 nM with HAP1 MTAP-deleted; 500 to 5000 nM on PRMT5 [1]; not below 5 µM against PRMT5 [2]; 50 to 500 nM at PRMT5 [3]. In addition, the “MTAP Intact/Deleted Ratio” value in the assay on HAP1 MTAP-deleted was “B* (an IC50 ratio greater than or equal to 3 fold but lower than 10 fold between the IC50 in the HAP1 MTAP-intact cell line and the HAP1 MTAP-deleted cell line)”. For the same compound, at PRMT5 [3] (setting [5]), the “SAM/MTA Ratio” value is “A (a Ki ratio greater than or equal to 10 fold between the Ki in the presence of SAM and the Ki in the presence of MTA)”.

As for `Cc1ncoc1COc1ccc2c(c1)CCN(C[C@@H](O)CNC(=O)c1cccc(NC3CCC3)c1)C2` [Compound 283, (S)-3-(cyclobutylamino)-N-(2-hydroxy-3-(6-((4-methyloxazol-5-yl)methoxy)-3,4-dihydroisoquinolin-2(1H)-yl)propyl)benzamide], the IC50 in the assay with HAP1 MTAP-intact is less than 1 µM; in the assay with HAP1 MTAP-deleted, less than 1000 nM; at PRMT5 [1], 500 to 5000 nM; at PRMT5 [2] (read-out: No Co-factor IC50), not below 5 µM; at PRMT5 [3], 500 to 5000 nM. Besides, the “MTAP Intact/Deleted Ratio” value with HAP1 MTAP-deleted was “C* (an IC50 ratio of less than 3 fold between the IC50 in the HAP1 MTAP-intact cell line and the HAP1 MTAP-deleted cell line)”. Also, the “SAM/MTA Ratio” value on PRMT5 [3] (setting [4]) was “A (a Ki ratio greater than or equal to 10 fold between the Ki in the presence of SAM and the Ki in the presence of MTA)”.
